# Patent US20230174521A1, “NOVEL DIACYLGLYCERIDE O-ACYLTRANSFERASE 2 INHIBITORS” (Merck Sharp & Dohme LLC, priority 2020, published 2023)
# Biological target: T1, human DGAT2 (hDGAT2) (Homo sapiens, UniProt Q96PD7)
# T1 construct: made in house; host or cells: Sf-9 insect cells (baculovirus infection); membrane fraction
# T1 sequence (Q96PD7 1-388): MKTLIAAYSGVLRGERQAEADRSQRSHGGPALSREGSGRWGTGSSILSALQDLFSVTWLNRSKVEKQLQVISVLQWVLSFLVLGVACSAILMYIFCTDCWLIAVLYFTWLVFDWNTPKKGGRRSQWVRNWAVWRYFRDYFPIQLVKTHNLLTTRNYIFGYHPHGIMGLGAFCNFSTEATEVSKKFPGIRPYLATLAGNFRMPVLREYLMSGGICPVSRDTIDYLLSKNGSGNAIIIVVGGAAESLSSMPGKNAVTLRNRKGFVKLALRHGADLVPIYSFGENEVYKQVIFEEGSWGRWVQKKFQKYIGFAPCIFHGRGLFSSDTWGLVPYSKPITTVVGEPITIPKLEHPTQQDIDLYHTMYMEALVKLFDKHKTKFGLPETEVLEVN
# Test: DGAT2 enzymatic activity assay (LC/MS/MS detection of 13C18-triolein, Sf-9 membrane prep)
# Type: biochemical
# Settings: hDGAT2 Sf-9 membrane, 25 μM diolein, 5 μM 13C oleoyl-CoA, rt
# Procedure: Sf-9 insect cells were maintained in Grace's insect cell culture medium with 10% heated-inactivated fetal bovine serum, 1% Pluronic F-68 and 0.14 μg/ml Kanamycine sulfate at 27° C. in a shaker incubator. After infection with untagged baculovirus expressing human DGAT2 (hDGAT2) at multiplicity of infection (MOI) 3 for 48 hours, cells were harvested. Cell pellets were suspended in buffer containing 10 mM Tris-HCl pH 7.5, 1 mM EDTA, 250 mM sucrose and Complete Protease Inhibitor Cocktail (Sigma Aldrich), and sonicated on ice. Cell debris were removed by centrifugation at 2000×g for 15 minutes. Membrane fractions were isolated by ultracentrifugation (100,000×g), resuspended in the same buffer, and frozen (−80° C.) for later use. The protein concentration was determined with the Pierce™ BCA Protein Assay Kit (Thermo Fisher Scientific). Expression of protein levels was analyzed by immunoblotting with rabbit anti-DGAT2 antibody (Abcam, ab102831) and donkey anti-rabbit IgG H&L Alexa Fluor® 647 (Abcam, ab150075) followed by detection using Typhoon FLA9000 (GE Healthcare).
# LC/MS/MS analyses were performed using Thermal Fisher's LX4-TSQ Vantage system. This system consists of an Agilent binary high-performance liquid chromatography (HPLC) pumps and a TSQ Vantage triple quadrupole MS/MS instrument. For each sample, 2 μL samples from the top organic layer of in-plate liquid-liquid extraction were injected onto a Thermo Betabasic C4 column (2.1 mm×20 mm, 5 μm particle size). The samples were then eluted using the following conditions; mobile phase: Isopropanol: acetonitrile/10 mM ammonium formate=50/35/15 (v/v/v), flow rate: 0.8 mL/min, temperature: 25° C. Data was acquired in positive mode using a heated electrospray ionization (HESI) interface. The operational parameters for the TSQ Vantage MS/MS instrument were a spray voltage of 3000 V, capillary temperature of 280° C., vaporizer temperature 400° C., sheath gas 45 arbitrary unit, Aux gas 10 arbitrary units, S-lens 165 and collision gas 1.0 mTorr. […] (SRM) chromatograms of ^13C18-triolein (Q1: 920.8>Q3:621.3) and internal standard ^13C21-triolein (Q1: 923.8>Q3:617.3) were collected for 33 sec. The peak area was integrated by Xcalibur Quan software. The ratio between the ^13C18triolein generated in the reaction and spiked in internal standard ^13C21-triolein was used to generate percentage inhibition and IC50 values. Compound percentage inhibition was calculated by the following formula: Inhibition %=1−[(compound response−low control)/(high control−low control)]×100%. Potent compounds were titrated and IC50 were calculated by 4 parameter sigmoidal curve fitting formula.
# DGAT2 activity was determined by measuring the amount of enzymatic product ^13C18-triolein (^13C-1,2,3-Tri(cis-9-octadecenoyl)glycerol) using the membrane prep mentioned above. The assay was carried out in ABgene 384-well assay plates in a final volume of 25 μL at rt. The assay mixture contained the following: assay buffer (100 mM Tris.Cl, pH 7.0, 20 mM MgCl2, 5% ethanol), 25 μM of diolein, 5 μM of ^13C oleoyl-CoA and 8 ng/μL of DGAT2 membrane.
row,IC50 [nM],SMILES
1,134,Cc1cc2c(cc1C(=O)NC1(C)CS(=O)(=O)C1)c(C(C)C)nn2-c1cccc(OC(F)F)c1 [Example 19]
2,389,"Cn1nccc1-n1nc(-c2ccc(F)cc2)c2cc(C(=O)NC3(C)CS(=O)(=O)C3)ccc21 [Example 3, 3-(4-fluorophenyl)-N-(3-methyl-1,1-dioxo-thietan-3-yl)-1-(2-methylpyrazol-3-yl)indazole-5-carboxamide]"
3,5,Cc1c(C(=O)NC2(C)CS(=O)(=O)C2)ccc2c1c(C(C)C)nn2-c1cccc(OC(F)F)c1 [Example 20]
4,5.8,CC(C)(O)Cc1nn(-c2cccc(OC(F)F)c2)c2ncc(C(=O)NC3(C)CS(=O)(=O)C3)cc12 [Example 23]
5,54,"CC(O)c1nn(-c2cccc(OC(F)F)c2)c2ncc(C(=O)NC3(C)CS(=O)(=O)C3)cc12 (single isomer, unassigned) [Example 38b, l-(3-(difluoromethoxy)phenyl)-3-(l-hydroxyethyl)-N-(3-methyl-1,1-dioxidothietan-3-yl)-1H-pyrazolo[3,4-b]pyridine-5-carboxamide]"
6,3510,"COCC(C)NC(=O)c1ccc2c(c1)c(-c1ccccc1Cl)cn2-c1ccc(F)cc1 (centres unmarked) [Example 10, 3-(2-chlorophenyl)-1-(4-fluorophenyl)-N-(1-methoxypropan-2-yl)-1H-indole-5-carboxamide]"
7,118,"CC1(NC(=O)c2cnc3c(c2)c(C(C)(O)C(F)F)nn3-c2cccc(OC(F)F)c2)CS(=O)(=O)C1 (centres unmarked) [Example 43, 3-(1,1-difluoro-2-hydroxypropan-2-yl)-1-(3 - (difluoromethoxy)phenyl)-N-(3-methyl-1,1-dioxidothietan-3-yl)-1H-pyrazolo[3,4-b]pyridine-5-carboxamide]"
8,11,"CCc1nn(-c2cccc(OC(F)F)c2)c2ccc(C(=O)NC3(C)CS(=O)(=O)C3)cc12 [Example 14, l-(3-(difluoromethoxy)phenyl)-3-ethyl-N-(3-methyl-1,1-dioxo-thietan-3-yl)indazole-5-carboxamide]"
9,> 10000,CC1(NC(=O)c2ccc3c(c2)c(NS(C)(=O)=O)nn3-c2cccc(OC(F)F)c2)CS(=O)(=O)C1 [Example 51]
10,9.1,"CC1(NC(=O)c2cc(Cl)c3c(c2)c(C(C)(C)O)nn3-c2cccc(OC(F)F)c2)CS(=O)(=O)C1 [Example 35, 7-chloro-1-(3-(difluoromethoxy)phenyl)-3-(2-hydroxypropan-2-yl)-N-(3-methy1-l,1-dioxidothietan-3-yl)-1H-indazole-5-carboxamide]"
11,2.7,"CC1(NC(=O)c2cnc3c(c2)c(C(C)(C)O)nn3-c2cc(OCC(F)F)ncc2F)CCS(=O)(=O)CC1 [Example 44, 1-(2-(2,2-difluoroethoxy)-5-fluoropyridin-4-yl)-3-(2-hydroxypropan-2-yl)-N-(4-methyl-1,1-dioxidotetrahydro-2H-thiopyran-4-yl)-1H-pyrazolo[3,4-b]pyridine-5-carboxamide]"
12,83,"CC(O)c1nn(-c2cccc(OC(F)F)c2)c2ccc(C(=O)N[C@@]3(C)CCS(=O)(=O)C3)cc12 (stereo partly drawn) [Example 34, 1-(3-(difluoromethoxy)phenyl)-3-(l-hydroxyethyl)-N-((S)-3-methyl-1,1-dioxidotetrahydrothiophen-3-yl)-1H-indazole-5-carboxamide]"
13,0.3,"C[C@]1(NC(=O)c2ccc3c(c2)c(Oc2ccc(F)cc2)nn3-c2cccc(OC(F)F)c2)CCS(=O)(=O)C1 [Example 54, (S)-1-(3-(difluoromethoxy)phenyl)-3-(4-fluorophenoxy)-N-(3-methyl-1,1-dioxidotetrahydrothiophen-3-yl)-1H-indazole-5-carboxamide]"
14,113,"CC1(NC(=O)c2ccc3c(c2)c(C(O)C(F)(F)F)nn3-c2cccc(OC(F)F)c2)CS(=O)(=O)C1 (single isomer, unassigned) [Example 30b, 1-[3-(difluoromethoxy)phenyl]-N-(3-methyl-1,1-dioxo-thietan-3-yl)-3-(2,2,2-trifluoro-1-hydroxy-ethyl)indazole-5-carboxamide]"
15,3.2,"C[C@]1(NC(=O)c2cnc3c(c2)c(-c2ccc(F)cc2)nn3-c2cccc(OC(F)F)c2)CCS(=O)(=O)C1 [Example 4, (S)-1-(3-(difluoromethoxy)phenyl)-3-(4-fluorophenyl)-N-(3-methyl-l,1-dioxo-thiolan-3-yl)pyrazolo[3,4-b]pyridine-5-carboxamide]"
16,12300,"CC(C)(CN1CCOCC1)NC(=O)c1ccc2c(c1)c(-c1ccccc1Cl)cn2-c1ccc(F)cc1 [Example 9, 3-(2-chlorophenyl)-1-(4-fluorophenyl)-N-(2-methyl-l-morpholinopropan-2-yl)-1H-indole-5-carboxamide]"
17,41,CC(C)Nc1nn(-c2cccc(OC(F)F)c2)c2ccc(C(=O)NC3(C)CS(=O)(=O)C3)cc12 [Example 50]
18,6.7,"CCCc1nn(-c2cccc(OC(F)F)c2)c2ncc(C(=O)N[C@@]3(C)CCS(=O)(=O)C3)cc12 [Example 15, (S)-1-(3-(difluoromethoxy)phenyl)-N-(3-methyl-1,1-dioxidotetrahydrothiophen-3-yl)-3-propyl-1H-pyrazolo[3,4-b]pyridine-5-carboxamide]"
19,25,CC(C)c1nn(-c2cncc(OC(F)F)c2)c2ncc(C(=O)NC3(C)CS(=O)(=O)C3)cc12 [Example 17]
20,578,"C[C@]1(NC(=O)c2ccc3c(c2)c(-c2ccc(F)cc2)cn3-c2ccc(F)cc2)CCS(=O)(=O)C1 [Example 7, (S)-1,3-bis(4-fluorophenyl)-N-(3-methyl-1,1-dioxidotetrahydrothiophen-3-yl)-1H-indole-5-carboxamide]"
21,94,CC1(NC(=O)c2ccc3c(c2)c(C(O)C(F)F)nn3-c2cccc(OC(F)F)c2)CS(=O)(=O)C1 (racemic) [Example 31]
22,134,"CC1(NC(=O)c2ccc3c(ccn3-c3cccc(OC(F)F)c3)c2)CS(=O)(=O)C1 [Example 8, 1-(3-(difluoromethoxy)phenyl)-N-(3-methyl-1,1-dioxidothietan-3-yl)-1H-indole-5-carboxamide]"
23,115,"C[C@]1(NC(=O)c2ccc3c(c2)c(-c2ccc(F)cc2)cn3-c2ccccc2Cl)CCS(=O)(=O)C1 [Example 5, (S)-1-(2-chlorophenyl)-3-(4-fluorophenyl)-N-(3-methyl-1,1-dioxidotetrahydrothiophen-3-yl)-1H-indole-5-carboxamide]"
24,205,"CC1(NC(=O)c2ccc3c(c2)c(C(O)C2CC2)nn3-c2cccc(OC(F)F)c2)CS(=O)(=O)C1 (single isomer, unassigned) [Example 29b, 3-[cyclopropyl(hydroxy)methyl] - 1-[3-(difluoromethoxy)phenyl]-N-(3-methyl-1,1-dioxo-thietan-3-yl)indazole-5-carboxamide]"
25,24,"CCC(O)c1nn(-c2cccc(OC(F)F)c2)c2ccc(C(=O)NC3(C)CS(=O)(=O)C3)cc12 (single isomer, unassigned) [Example 28a, 1-(3-(difluoromethoxy)phenyl)-3-(1-hydroxypropyl)-N-(3-methyl-1,1-dioxidothietan-3-yl)-1H-indazole-5-carboxamide]"
26,543,"C[C@]1(NC(=O)c2ccc3c(c2)c(S(C)(=O)=O)nn3-c2cccc(OC(F)F)c2)CCS(=O)(=O)C1 [Example 53, (S)-1-(3-(difluoromethoxy)phenyl)-N-(3-methyl-1,1-dioxidotetrahydrothiophen-3-yl)-3-(methylsulfonyl)-1H-indazole-5-carboxamide]"
